Consider 27 compounds from patent US8557816B2, “Aurora kinase modulators and method of use” (Amgen Inc., priority 2007, dated 2013).

The target in one assay is T1, AuroraB (Homo sapiens, UniProt Q96GD4).
T1 construct: 20 μL of AuroraB FL H is for a final volume of 41 μL; His
As to the kind of experiment: AuroraB Homogeneous Time Resolved Fluorescent (HTRF) kinase assay. It is filed as biochemical. The note with it: average; read-out: AurB_IC50_IP (uM Avg). In outline: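 Full-length His-tagged kinase phosphorylates biotinylated Histone H3 (0.1 μM final) with ATP in pH 7.5 HEPES containing MgCl, MnCl, DTT and BSA for about 90 min. EDTA-containing detection mix with SA-APC and Eu-anti-phosphoHistone H3 then equilibrated about 60 min; HTRF read with 320 nm excitation, emissions 615/655 nm.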

The next assay has as its target T2, AuroraA-TPX2 (Homo sapiens, UniProt O14965).
T2 construct: 20 μL of AuroraA-TPX2 KD GST for a final volume of about 41 μL; GST
T2 sequence (O14965 133-383 limits assumed): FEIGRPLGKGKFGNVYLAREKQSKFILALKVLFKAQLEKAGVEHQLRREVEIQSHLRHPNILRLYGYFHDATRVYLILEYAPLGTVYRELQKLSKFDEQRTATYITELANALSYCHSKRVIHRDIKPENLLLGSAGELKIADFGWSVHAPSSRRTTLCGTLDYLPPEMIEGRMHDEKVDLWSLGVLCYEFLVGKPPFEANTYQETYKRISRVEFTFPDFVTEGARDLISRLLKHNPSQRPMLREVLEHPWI
T2 sequence (Q9ULW0 1-43 partner limits assumed): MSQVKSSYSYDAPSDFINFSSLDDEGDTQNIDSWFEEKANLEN
Nature of the assay: AuroraA-TPX2 Homogeneous Time Resolved Fluorescent (HTRF) kinase assay. It is filed as biochemical. The settings on record: average; read-out: AurA_IC50_IP (uM Avg). The essentials:
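HTRF read-out (Eu 615 nm to APC 655 nm) of phosphorylated biotin-PLK, detected with 0.02 nM europium anti-phosphoPLK antibody and 0.0005 mg/mL SA-APC after overnight equilibration.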

T1 sequence (Q96GD4 whole entry): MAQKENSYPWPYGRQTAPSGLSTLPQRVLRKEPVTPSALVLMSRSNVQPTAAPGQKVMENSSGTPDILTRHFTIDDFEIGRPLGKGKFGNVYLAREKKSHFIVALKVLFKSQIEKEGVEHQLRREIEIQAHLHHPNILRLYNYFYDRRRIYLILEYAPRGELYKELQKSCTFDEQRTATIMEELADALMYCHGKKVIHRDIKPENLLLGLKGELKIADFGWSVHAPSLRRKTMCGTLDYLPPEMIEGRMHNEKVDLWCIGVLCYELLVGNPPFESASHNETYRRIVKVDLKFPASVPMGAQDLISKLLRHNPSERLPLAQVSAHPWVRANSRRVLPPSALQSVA

Turning to `COc1cnc2c(Oc3ccc(Nc4nnc(-c5cccc(C)n5)c5ccccc45)cc3)ccnc2c1` [compound 111, N-(4-((7-(methyloxy)-1,5-naphthyridin-4-yl)oxy)phenyl)-4-(6-methyl-2-pyridinyl)-1-phthalazinamine], the values for the IC50 at AuroraB and on AuroraA-TPX2 were 0.005 µM and 0.04 µM, respectively.

Take `COc1cc2nccc(Oc3ccc(Nc4nnc(-c5cccc(CO)n5)c5ccccc45)cc3)c2cc1OC` [compound 112, (6-(4-((4-((6,7-bis(methyloxy)-4-quinolinyl)oxy)phenyl)amino)-1-phthalazinyl)-2-pyridinyl)methanol]: the IC50 on AuroraB turned out to be 0.003 µM; at AuroraA-TPX2, 0.015 µM.

Regarding `COc1cc2nccc(Oc3ccc(Nc4nnc(-c5cccc(COC(C)=O)n5)c5ccccc45)cc3)c2cc1OC` [compound 113, (6-(4-((4-((6,7-bis(methyloxy)-4-quinolinyl)oxy)phenyl)amino)-1-phthalazinyl)-2-pyridinyl)methyl acetate], the figures for the IC50 on AuroraB and at AuroraA-TPX2 were 0.011 µM and 0.014 µM, respectively.

Take `COc1cnc2c(Oc3ccc(Nc4nnc(-c5cccc(CO)n5)c5ccccc45)cc3)ccnc2c1` [compound 114, (6-(4-((4-((7-(methyloxy)-1,5-naphthyridin-4-yl)oxy)phenyl)amino)-1-phthalazinyl)-2-pyridinyl)methanol]: the IC50 worked out at 0.005 µM on AuroraB and 0.036 µM on AuroraA-TPX2.

With `Fc1cc(Nc2nnc(-c3ccccc3)c3ccccc23)ccc1Oc1ccnc2ccccc12` [compound 115, N-(3-fluoro-4-(4-quinolinyloxy)phenyl)-4-phenyl-1-phthalazinamine], the IC50 on AuroraB amounted to 0.006 µM; on AuroraA-TPX2, 0.163 µM.

Regarding `COc1cnc2c(Oc3ccc(Nc4nnc(-c5cc(C)ccn5)c5ccccc45)cc3)ccnc2c1` [compound 116, N-(4-((7-(methyloxy)-1,5-naphthyridin-4-yl)oxy)phenyl)-4-(4-methyl-2-pyridinyl)-1-phthalazinamine], the IC50 was found to be 0.011 µM at AuroraB and 0.062 µM on AuroraA-TPX2.

As for `COc1cc2nccc(Oc3ccc(Nc4nnc(-c5cc(C)ccn5)c5ccccc45)cc3)c2cc1OC` [compound 117, N-(4-((6,7-bis(methyloxy)-4-quinolinyl)oxy)phenyl)-4-(4-methyl-2-pyridinyl)-1-phthalazinamine], the figures for the IC50 at AuroraB and on AuroraA-TPX2 were 0.043 µM and 0.057 µM, respectively.

As to `COc1ccc2c(Oc3ccc(Nc4nnc(-c5cc(C)ccn5)c5ccccc45)cc3)ccnc2c1` [compound 118, N-(4-((7-(methyloxy)-4-quinolinyl)oxy)phenyl)-4-(4-methyl-2-pyridinyl)-1-phthalazinamine], the results for the IC50 at AuroraB and at AuroraA-TPX2 were 0.009 µM and 0.136 µM, respectively.

Turning to `COc1ccccc1-c1nnc(Nc2ccc(Oc3ccnc4cc(C#N)ccc34)cc2)c2ccccc12` [compound 119, 4-((4-((4-(2-(methyloxy)phenyl)-1-phthalazinyl)amino)phenyl)oxy)-7-quinolinecarbonitrile], the IC50 worked out at 0.007 µM on AuroraB and 0.175 µM at AuroraA-TPX2.

For `COCc1cccc(-c2nnc(Nc3ccc(Oc4ccnc5cc(OC)cnc45)cc3)c3ccccc23)n1` [compound 120, 4-(6-((methyloxy)methyl)-2-pyridinyl)-N-(4-((7-(methyloxy)-1,5-naphthyridin-4-yl)oxy)phenyl)-1-phthalazinamine], the results for the IC50 on AuroraB and on AuroraA-TPX2 were 0.003 µM and 0.019 µM, respectively.

As for `COc1cc2nccc(Oc3ccc(Nc4nnc(-c5cc(C)ccn5)c5ccccc45)cc3)c2cn1` [compound 121, N-(4-((7-(methyloxy)-1,6-naphthyridin-4-yl)oxy)phenyl)-4-(4-methyl-2-pyridinyl)-1-phthalazinamine], the IC50 at AuroraB stood at 0.007 µM; at AuroraA-TPX2 it was 0.041 µM.

Consider `Cc1ccc(-c2nnc(Nc3ccc(Oc4ccnc5cc(C#N)ccc45)cc3)c3ccccc23)nc1` [compound 122, 4-((4-((4-(5-methyl-2-pyridinyl)-1-phthalazinyl)amino)phenyl)oxy)-7-quinolinecarbonitrile], for which the IC50 at AuroraB was found to be 0.003 µM; on AuroraA-TPX2 it was 0.022 µM.

As to `COc1cc2ncnc(Oc3ccc(Nc4nnc(-c5cc(C)ccn5)c5ccccc45)cc3)c2cc1OC` [compound 123, N-(4-((6,7-bis(methyloxy)-4-quinazolinyl)oxy)phenyl)-4-(4-methyl-2-pyridinyl)-1-phthalazinamine], the IC50 on AuroraB amounted to 0.015 µM; at AuroraA-TPX2, 0.132 µM.

Turning to `COc1cc2nccc(Nc3ccc(Nc4nnc(-c5ccccc5)c5ccccc45)cc3)c2cn1` [compound 124, N-(7-(methyloxy)-1,6-naphthyridin-4-yl)-N′-(4-phenyl-1-phthalazinyl)-1,4-benzenediamine], the figures for the IC50 at AuroraB and at AuroraA-TPX2 were 0.002 µM and 0.042 µM, respectively.

`COc1cnc2c(Oc3ccc(Nc4nnc(-c5ccc(C)cn5)c5ccccc45)cc3)ccnc2c1` [compound 125, N-(4-((7-(methyloxy)-1,5-naphthyridin-4-yl)oxy)phenyl)-4-(5-methyl-2-pyridinyl)-1-phthalazinamine]: the results for the IC50 at AuroraB and at AuroraA-TPX2 were 0.003 µM and 0.018 µM, respectively.

Take `COc1cnc2c(Oc3ccc(Cc4nnc(-c5ccc(C)cc5)c5ccccc45)cc3)ccnc2c1` [compound 126, 3-(methyloxy)-8-((4-((4-(4-methylphenyl)-1-phthalazinyl)methyl)phenyl)oxy)-1,5-naphthyridine]: the results for the IC50 on AuroraB and at AuroraA-TPX2 were 0.017 µM and 0.388 µM, respectively.

In the case of `COc1cc2nccc(Oc3ccc(Nc4nnc(-c5cccc(C)n5)c5ccccc45)cn3)c2cn1` [compound 127, N-(6-((7-(methyloxy)-1,6-naphthyridin-4-yl)oxy)-3-pyridinyl)-4-(6-methyl-2-pyridinyl)-1-phthalazinamine], the IC50 on AuroraB was 0.009 µM; on AuroraA-TPX2, 0.241 µM.

Turning to `COc1cnc2c(Oc3ccc(Nc4nnc(-c5cccc(C)n5)c5ccccc45)cn3)ccnc2c1` [compound 128, N-(6-((7-(methyloxy)-1,5-naphthyridin-4-yl)oxy)-3-pyridinyl)-4-(6-methyl-2-pyridinyl)-1-phthalazinamine], the IC50 on AuroraB came to 0.018 µM; at AuroraA-TPX2 it was 0.099 µM.

For `COc1cncc(-c2nnc(Nc3ccc(Oc4ccnc5cc(OC)cnc45)cc3)c3ccccc23)c1` [compound 129, N-(4-((7-(methyloxy)-1,5-naphthyridin-4-yl)oxy)phenyl)-4-(5-(methyloxy)-3-pyridinyl)-1-phthalazinamine], the IC50 on AuroraB came to 0.014 µM; at AuroraA-TPX2, 0.165 µM.

For `COc1cnc2c(Oc3ccc(Nc4nnc(-c5ccncc5OC)c5ccccc45)cc3)ccnc2c1` [compound 130, N-(4-((7-(methyloxy)-1,5-naphthyridin-4-yl)oxy)phenyl)-4-(3-(methyloxy)-4-pyridinyl)-1-phthalazinamine], the IC50 on AuroraB came to 0.1 µM; on AuroraA-TPX2, 0.654 µM.

For `COc1cc2nccc(Oc3ccc(Nc4nnc(-c5cccc(OC)n5)c5ccccc45)cc3)c2cn1` [compound 131, N-(4-((7-(methyloxy)-1,6-naphthyridin-4-yl)oxy)phenyl)-4-(6-(methyloxy)-2-pyridinyl)-1-phthalazinamine], the IC50 at AuroraB was 0.003 µM; at AuroraA-TPX2, 0.019 µM.

Turning to `COc1cnc2c(Oc3ccc(Nc4nnc(-c5cccc(COC(C)=O)n5)c5ccccc45)cc3)ccnc2c1` [compound 132, (6-(4-((4-((7-(methyloxy)-1,5-naphthyridin-4-yl)oxy)phenyl)amino)-1-phthalazinyl)-2-pyridinyl)methyl acetate], the IC50 turned out to be 0.005 µM at AuroraB and 0.022 µM at AuroraA-TPX2.

For the compound `Brc1ccc2c(Oc3ccc(Nc4nnc(-c5ccccc5)c5ccccc45)cc3)ccnc2c1` [compound 133, N-(4-((7-bromo-4-quinolinyl)oxy)phenyl)-4-phenyl-1-phthalazinamine], the figures for the IC50 at AuroraB and at AuroraA-TPX2 were 0.028 µM and 0.494 µM, respectively.

Take `Brc1ccc2nccc(Oc3ccc(Nc4nnc(-c5ccccc5)c5ccccc45)cc3)c2c1` [compound 134, N-(4-((6-bromo-4-quinolinyl)oxy)phenyl)-4-phenyl-1-phthalazinamine]: the values for the IC50 on AuroraB and at AuroraA-TPX2 were 0.024 µM and 0.176 µM, respectively.

Consider `COc1cnc2c(Oc3ccc(Nc4nnc(-c5ccccc5)c5ccccc45)nc3)ccnc2c1` [compound 135, N-(5-((7-(methyloxy)-1,5-naphthyridin-4-yl)oxy)-2-pyridinyl)-4-phenyl-1-phthalazinamine], for which the figures for the IC50 on AuroraB and at AuroraA-TPX2 were 0.012 µM and 0.063 µM, respectively.

For the compound `COc1cnc2c(Oc3ccc(Nc4nnc(-c5ccc6c(c5)CC(C)(C)O6)c5ccccc45)cc3)ccnc2c1` [compound 136, 4-(2,2-dimethyl-2,3-dihydro-1-benzofuran-5-yl)-N-(4-((7-(methyloxy)-1,5-naphthyridin-4-yl)oxy)phenyl)-1-phthalazinamine], the IC50 on AuroraB was 0.016 µM; on AuroraA-TPX2, 0.037 µM.

Take `COc1cnc2c(Oc3ccc(Nc4nnc(-c5ccc(OC(C)C)cc5)c5ccccc45)cc3)ccnc2c1` [compound 137, 4-(4-((1-methylethyl)oxy)phenyl)-N-(4-((7-(methyloxy)-1,5-naphthyridin-4-yl)oxy)phenyl)-1-phthalazinamine]: the figures for the IC50 on AuroraB and at AuroraA-TPX2 were 0.018 µM and 0.091 µM, respectively.
